Our source for the TGI and GI50 values is PubChem BioAssay (NCI).

SMILES strings stand for the structures.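 Each compound was tested at five concentrations against cells in 96-well plates for 48 hours. At the GI50, growth is halved. At the TGI there is no net growth.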

Test systems include A549 NSCLC; CAKI-1 renal; HCC-2998 colon; NCI-H226 lung; OVCAR-3 ovarian; SF-539 CNS; SK-MEL-28 melanoma; SK-OV-3 ovarian; SNB-75 CNS; SW-620 colon.
Common to all, as to assay: NCI-60 cell line screen, 48 h

As to `C=C1[C@@H](C)[C@H]2[C@H](Cc3ccccc3)NC(=O)[C@]23OC(=O)/C=C/[C@H](O)CCC[C@@H](C)C/C=C/[C@H]3[C@@H]1O`, the TGI in the test with A549 NSCLC is > 97 µM; in the test with CAKI-1 renal it was 4.51 µM; with HCC-2998 colon, > 100 µM; in the test on NCI-H226 lung, 23.4 µM; with OVCAR-3 ovarian, 91.4 µM; in the test with SF-539 CNS, 43.8 µM. Further, the TGI was > 100 µM in the test on SK-MEL-28 melanoma, > 100 µM with SK-OV-3 ovarian, 1.3 µM with SNB-75 CNS and > 100 µM with SW-620 colon.
`C/C(O)=C(\N=O)C(=O)NCCc1ccccc1`: the TGI in the test with A549 NSCLC, with CAKI-1 renal, in the test with HCC-2998 colon, in the test on NCI-H226 lung, in the test on OVCAR-3 ovarian and in the test on SF-539 CNS was > 100 µM in each case. Moreover, the TGI with SK-MEL-28 melanoma was > 100 µM; in the test with SK-OV-3 ovarian it was > 100 µM; with SNB-75 CNS, > 100 µM; in the test with SW-620 colon, > 55.2 µM.
`O=C(/C=C/c1ccc(OCC(=O)N2CCN(c3ccccc3)CC2)cc1)c1ccc(Cl)cc1`: the TGI in the test on A549 NSCLC was > 100 µM; in the test on CAKI-1 renal, > 100 µM; in the test with HCC-2998 colon it was > 100 µM; in the test with NCI-H226 lung it was 97.9 µM; in the test on OVCAR-3 ovarian, > 100 µM; in the test on SF-539 CNS it was 56.6 µM. Further, the TGI is > 100 µM in the test on SK-MEL-28 melanoma, 73.8 µM with SK-OV-3 ovarian, 39.2 µM with SNB-75 CNS and > 100 µM in the test on SW-620 colon.
Turning to `N#Cc1c(C(=O)c2ccccc2)cnn1-c1ccccc1`, the GI50 with A549 NSCLC, in the test with CAKI-1 renal, in the test with HCC-2998 colon, in the test with NCI-H226 lung, in the test with OVCAR-3 ovarian and in the test with SF-539 CNS was > 25 µM throughout. Moreover, the GI50 with SK-MEL-28 melanoma, in the test on SK-OV-3 ovarian, in the test with SNB-75 CNS and in the test on SW-620 colon was > 25 µM each time. Further, the TGI in the test on A549 NSCLC, with CAKI-1 renal, in the test on HCC-2998 colon, with NCI-H226 lung, in the test with OVCAR-3 ovarian and with SF-539 CNS was > 25 µM throughout. Besides, the TGI in the test with SK-MEL-28 melanoma, in the test with SK-OV-3 ovarian, in the test on SNB-75 CNS and in the test with SW-620 colon was > 25 µM each time.
For the compound `O=C(O)c1ccc2c(c1)Cc1cc([N+](=O)[O-])ccc1-2`, the TGI in the test on A549 NSCLC, with CAKI-1 renal, in the test on HCC-2998 colon, in the test on NCI-H226 lung, in the test with OVCAR-3 ovarian and in the test with SF-539 CNS was > 100 µM in each case. Moreover, the TGI in the test with SK-MEL-28 melanoma, with SK-OV-3 ovarian, in the test with SNB-75 CNS and in the test on SW-620 colon was > 100 µM throughout.
As to `CN(C)CCCn1c2c(c3cnccc3c1=O)C(=O)c1ccccc1-2`, the GI50 in the test on A549 NSCLC was 0.676 µM; in the test on CAKI-1 renal, 0.376 µM; in the test on HCC-2998 colon, 0.777 µM; in the test with NCI-H226 lung it was 0.388 µM; in the test on OVCAR-3 ovarian, 1.1 µM; in the test with SF-539 CNS, 0.377 µM. Moreover, the GI50 in the test with SK-MEL-28 melanoma is 0.508 µM; in the test on SK-OV-3 ovarian, 1.96 µM; in the test with SNB-75 CNS, 0.82 µM; with SW-620 colon, 0.209 µM. Moreover, the TGI in the test on A549 NSCLC is 3.86 µM; in the test with CAKI-1 renal, 7.01 µM; with HCC-2998 colon, 2.6 µM; with NCI-H226 lung, 2.85 µM; in the test with OVCAR-3 ovarian, 5.47 µM; in the test on SF-539 CNS it was 2.9 µM. The TGI in the test on SK-MEL-28 melanoma was determined as 2.59 µM; in the test on SK-OV-3 ovarian it was 28.7 µM; in the test with SNB-75 CNS, 4.03 µM; with SW-620 colon it was 10.9 µM.
For `COc1ccc(-n2c(SCc3cc(OC)c(OC)c(OC)c3)nc3ccc(C)cc3c2=O)c(OC)c1`, the GI50 is 4.18 µM in the test with A549 NSCLC; 2.97 µM in the test on CAKI-1 renal; 6.75 µM in the test with HCC-2998 colon; > 100 µM with NCI-H226 lung; 2.84 µM in the test with OVCAR-3 ovarian; 2.88 µM with SF-539 CNS. Also, the GI50 is 5.79 µM in the test on SK-MEL-28 melanoma, 4.96 µM in the test with SK-OV-3 ovarian, 3.14 µM in the test with SNB-75 CNS and 4.49 µM in the test on SW-620 colon. In addition, the TGI in the test with A549 NSCLC was > 100 µM; in the test with CAKI-1 renal, > 100 µM; with HCC-2998 colon, > 100 µM; with NCI-H226 lung it was > 100 µM; in the test on OVCAR-3 ovarian it was 7.04 µM; in the test on SF-539 CNS it was 7.82 µM. The TGI in the test with SK-MEL-28 melanoma, in the test with SK-OV-3 ovarian, with SNB-75 CNS and with SW-620 colon was > 100 µM each time.
In the case of `COC(=O)C1CC(C(=O)OC)c2nc3cc(C)ccc3nc21` (stereo not given), the TGI in the test with A549 NSCLC, with CAKI-1 renal, with HCC-2998 colon, in the test on NCI-H226 lung, in the test on OVCAR-3 ovarian and in the test on SF-539 CNS was > 100 µM throughout. Besides, the TGI with SK-MEL-28 melanoma, in the test with SK-OV-3 ovarian, in the test on SNB-75 CNS and with SW-620 colon was > 100 µM throughout.
As to `Cc1ccccc1-c1c(N)nc(NC#N)nc1C(=O)Nc1ccccc1`, the TGI in the test with A549 NSCLC, in the test on CAKI-1 renal, in the test with HCC-2998 colon, with NCI-H226 lung, with OVCAR-3 ovarian and in the test on SF-539 CNS was > 100 µM each time. In addition, the TGI in the test on SK-MEL-28 melanoma, with SK-OV-3 ovarian, in the test with SNB-75 CNS and with SW-620 colon was > 100 µM in each case.
As for `Clc1ccc(Cl)c2[s+]snc12`, the TGI in the test on A549 NSCLC, with CAKI-1 renal, in the test with HCC-2998 colon, in the test on NCI-H226 lung, in the test with OVCAR-3 ovarian and in the test on SF-539 CNS was > 100 µM in each case. The TGI in the test with SK-MEL-28 melanoma was > 100 µM; in the test with SK-OV-3 ovarian it was > 100 µM; with SNB-75 CNS it was > 100 µM; with SW-620 colon, > 51.9 µM.
As for `O=C(O)c1cc2ccccc2c(O)c1O`, the TGI in the test on A549 NSCLC stood at 38.5 µM; in the test on CAKI-1 renal, 33.9 µM; in the test with HCC-2998 colon, 35.8 µM; with NCI-H226 lung, 42.7 µM; in the test on OVCAR-3 ovarian, 28.9 µM; in the test with SF-539 CNS it was 38.1 µM. Also, the TGI in the test with SK-MEL-28 melanoma amounted to 18.1 µM; in the test on SK-OV-3 ovarian it was 29 µM; in the test on SNB-75 CNS it was 31.7 µM; in the test on SW-620 colon it was 34.8 µM.
